The source of these data is ChEMBL document CHEMBL5029199, “Increased Molecular Flexibility Widens the Gap between K i and K d values in Screening for Retinoid X Receptor Modulators” (ACS Med Chem Lett, 2022).

Calls of active or inactive are those of the source. The rule behind the calls is not given here.

In series [1] the target is T1, Retinoic acid receptor RXR-alpha (Homo sapiens, UniProt P19793).
T1 sequence (P19793 whole entry): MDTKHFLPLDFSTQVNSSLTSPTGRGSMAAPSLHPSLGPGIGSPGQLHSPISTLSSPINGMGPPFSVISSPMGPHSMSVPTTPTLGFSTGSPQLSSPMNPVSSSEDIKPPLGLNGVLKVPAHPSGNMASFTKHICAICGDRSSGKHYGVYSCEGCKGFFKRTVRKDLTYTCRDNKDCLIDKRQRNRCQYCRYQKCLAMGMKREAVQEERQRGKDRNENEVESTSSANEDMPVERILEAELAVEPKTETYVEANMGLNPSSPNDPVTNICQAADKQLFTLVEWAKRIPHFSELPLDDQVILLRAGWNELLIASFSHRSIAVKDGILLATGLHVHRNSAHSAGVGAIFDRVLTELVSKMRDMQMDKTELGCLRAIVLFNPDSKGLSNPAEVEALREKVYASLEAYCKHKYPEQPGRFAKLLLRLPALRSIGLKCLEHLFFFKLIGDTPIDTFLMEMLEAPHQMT
Briefly: Antagonist activity at human RXR-alpha expressed in African green monkey COS-1 cells assessed as reduction in NEt-TMN-induced receptor transactivation at 1 uM by luciferase reporter gene assay. It counts as cell-based. Conditions: read-out: pA2 (converted). (In a reporter assay the amount or activity of a reporter protein is the signal.)

In series [2] the target is T1, Retinoic acid receptor RXR-alpha. Nature of the series: Antagonist activity at human RXR-alpha expressed in African green monkey COS-1 cells assessed as reduction in bexarotene-induced receptor transactivation at 1 uM by luciferase reporter gene assay. It counts as cell-based. Conditions: read-out: pA2 (converted).
The target is the same in series [3]. Nature of the series: Binding affinity to human RXRalpha-LBD expressed in African green monkey COS-1 cells assessed as dissociated constant incubated for 2 hrs by tryptophan fluorescence quenching assay. In kind it is cell-based.
Series [4] has the same target. Briefly: Displacement of NEt-C343 from human RXRalpha-LBD expressed in African green monkey COS-1 cells assessed as inhibition constant incubated for 2 hrs by competitive binding assay. It counts as cell-based.
Another series is filed under the species Homo sapiens. Nature of the series: Ratio of Ki for displacement of NEt-C343 from human RXRalpha-LBD expressed in African green monkey COS-1 cells to Kd for binding affinity to human RXRalpha-LBD expressed in African green monkey COS-1 cells. In kind it is cell-based.
Series [5] in a line: Drug uptake in African green monkey COS-1 cells at 10 uM measured after 24 hrs by trypan blue staining based LC-MS/MS analysis. It counts as ADME, cell-based. Conditions: chlorocebus aethiops, cos-1, 24 h.
Series [6] concerns the target T2, Retinoic acid receptor RXR-alpha (Homo sapiens) (UniProt P19793).
T2 sequence (whole entry): T1 sequence (P19793 whole entry)
Briefly: Antagonist activity at human RXR-alpha expressed in African green monkey COS-1 cells assessed as reduction in NEt-TMN-induced receptor transactivation by measuring shift in concentration-response curve at 1 uM by luciferase reporter gene assay.

One may read the Kd as the free concentration of one partner at which half of the binding sites on the other are occupied at equilibrium, for simple one-to-one binding. One may read the Ki as a measure of affinity in units of concentration, obtained from inhibition or displacement. Regarding `CCCCCOc1cc2c(cc1-n1c(C(F)(F)F)nc3cc(C(=O)O)ccc31)C(C)(C)CCC2(C)C`, the Kb in series [1] is 26.3 nM; in series [2], 8.71 nM. In series [3], the Kd was 277 nM. Moreover, in series [4], the Ki stood at 384 nM. In addition, the Ratio in the series filed under Homo sapiens worked out at 1.39. Moreover, the Drug uptake in series [5] was found to be 14.8 pg/10^4 cells.
With `CCCCCOc1cc2c(cc1-n1nnc3cc(C(=O)O)ccc31)C(C)(C)CCC2(C)C`, the Kd in series [3] came out at 764 nM. Besides, the Ki in series [4] turned out to be 3540 nM. For the same molecule, the Ratio in the series listed under Homo sapiens was found to be 4.63. Further, the Drug uptake in series [5] is 10.2 pg/10^4 cells. The outcome in series [6] was inactive.
For `CCCCCCOc1cc2c(cc1-n1c(C(F)(F)F)nc3cc(C(=O)O)ccc31)C(C)(C)CCC2(C)C`, in series [5], the Drug uptake amounted to 55.1 pg/10^4 cells.
As to `CCCCCCOc1cc2c(cc1-n1nnc3cc(C(=O)O)ccc31)C(C)(C)CCC2(C)C`, the Kd in series [3] turned out to be 705 nM. In addition, in series [4], the Ki was 3160 nM. For the same molecule, the Ratio in the series filed under Homo sapiens was 4.48. Also, the Drug uptake in series [5] worked out at 81.6 pg/10^4 cells. The result in series [6] was inactive.
